Earlier results in paper PMC9182199, “Borylated 2,3,4,5-Tetrachlorophthalimide and Their 2,3,4,5-Tetrachlorobenzamide Analogues: Synthesis, Their Glycosidase Inhibition and Anticancer Properties in View to Boron Neutron Capture Therapy” (Molecules, 2022).

Columns and labels:
[1] = system: rat; set-up: method as in earlier work; conditions: oral; cited from earlier work
[2] = target: T1, yeast α-glucosidase (Saccharomyces cerevisiae, UniProt P53341); set-up: method as in PMID 18254235; conditions: cited from earlier work
T1 construct: purchased Sigma

[3] = target: maltase; set-up: method as in PMID 18254235; conditions: cited from earlier work
[4] = system: sucrase; set-up: method as in PMID 18254235; conditions: cited from earlier work
[5] = system: human; conditions: oral; cited from earlier work
[6] = system: human; conditions: 5 min; cited from earlier work
[7] = cited from earlier work

T1 sequence (P53341 whole entry): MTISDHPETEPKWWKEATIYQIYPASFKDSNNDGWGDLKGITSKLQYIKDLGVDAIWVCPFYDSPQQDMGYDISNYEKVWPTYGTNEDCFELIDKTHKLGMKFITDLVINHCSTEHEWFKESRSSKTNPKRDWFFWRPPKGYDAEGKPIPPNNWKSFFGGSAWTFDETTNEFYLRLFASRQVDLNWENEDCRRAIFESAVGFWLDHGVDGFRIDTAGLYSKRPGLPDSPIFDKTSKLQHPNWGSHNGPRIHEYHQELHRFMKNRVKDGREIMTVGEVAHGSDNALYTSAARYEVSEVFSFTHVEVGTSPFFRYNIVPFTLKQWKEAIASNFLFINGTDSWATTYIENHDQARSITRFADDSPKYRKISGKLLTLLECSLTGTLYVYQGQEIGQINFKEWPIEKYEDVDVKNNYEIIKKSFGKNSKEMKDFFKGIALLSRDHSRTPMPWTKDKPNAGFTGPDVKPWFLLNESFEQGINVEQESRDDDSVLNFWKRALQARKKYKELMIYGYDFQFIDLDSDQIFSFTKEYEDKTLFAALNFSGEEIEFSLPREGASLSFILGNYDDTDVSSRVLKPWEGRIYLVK

Question: With `OB(O)c1ccccc1` [phenylboronic acid] as the compound, how does the LD50 [1] read?
Answer: Its LD50 is 740 mg/kg.

Question: Which IC50 [2] does the source give for `O=C1c2ccccc2C(=O)N1c1ccc([N+](=O)[O-])cc1[N+](=O)[O-]` [N-(2,4-dinitrophenyl)phthalimide] here?
Answer: The IC50 was 158 µM.

Question: What about the IC50 [3] of the same compound?
Answer: Its IC50 is 51 µM.

Question: And the inhibition of sucrase [4]?
Answer: Its inhibition of sucrase is “no inhibition”.

Question: What does the source list for `c1ccccc1` [benzene]?
Answer: LD50 (lethal dose) [5]: 125 mg/kg; LCLO (lethal concentration) [6]: 20,000 ppm; Immediately Dangerous to Life and Health concentration [7]: 500 ppm; Recommended Exposure Limit [7]: 0.1 ppm
